From patent US6677350B1, “Beta-fluoroethyl thiourea compounds and use” (priority 1999, dated 2004)
≈ marks a conversion by molar mass, not a printed value. Where two headings read alike, the source gives them in different places.

How the values were obtained:
[1] = system: M. tuberculosis H37Rv (ATCC 27294); assay: In vitro anti-tuberculosis screening, BACTEC 460 radiometric system, percent inhibition of growth; assay type: cell-based, Mycobacterium tuberculosis; settings: for inhibition at 12.5 µg/mL: Mycobacterium tuberculosis
[2] = system: Mtb; assay: Actual minimum inhibitory concentration (MIC), lowest concentration inhibiting 99% of the inoculum; assay type: cell-based, Mycobacterium tuberculosis; settings: read-out: minimum inhibitory concentration (MIC)
[3] = Mtb H37Rv, 12.5 μg/mL, BACTEC 12B medium, read-out: Activity % inhibition at 12.5 μg/mL (chalcones)
[4] = Mtb H37Rv, drug concentration 12.5 μg/mL, read-out: inhibition of the growth of Mtb
[5] = Mycobacterium tuberculosis, lowest concentration inhibiting 99% of the inoculum
[6] = read-out: Activity % inhibition at 12.5 μg/mL (chalcone-like compounds), Mtb H37Rv, 12.5 μg/mL, BACTEC 12B medium
[7] = read-out: inhibition of the growth of Mtb, Mtb H37Rv, drug concentration 12.5 μg/mL
[8] = Mtb H37Rv, 12.5 μg/mL, BACTEC 12B medium
[9] = Mtb H37Rv, drug concentration 12.5 μg/mL
[10] = Mtb H37Rv, 12.5 μg/mL, BACTEC 12B medium, read-out: Activity % Inhibition at 12.5 μg/mL (flavanones)

Q: Which results are given for `O=C(/C=C/c1cccc(Cl)c1)c1ccccc1O` [Compound 24, 3-Chloro-2′-hydroxychalcone]?
A: inhibition at 12.5 µg/mL [1, 3]: 90%; inhibition at 12.5 µg/mL [1, 4]: 90%; MIC [2, 5]: 48.3 µM (≈ 12.5 µg/mL); melting point: 108 to 108.5 °C

Q: With `O=C(C=Cc1cccnc1)c1ccc(F)cc1` [Compound 53, 1-(4-Fluorophenyl)-3-(pyridin-3-yl)-2-propen-1-one] as the molecule, how does the inhibition at 12.5 µg/mL [1, 6] read?
A: 98%

Q: And the inhibition at 12.5 µg/mL [1, 7]?
A: 98%

Q: And the MIC ([2]; Mycobacterium tuberculosis)?
A: 6.8 µM (≈ 1.55 µg/mL)

Q: And the melting point?
A: 126 to 127 °C

Q: With `O=C(/C=C/c1cccc(I)c1)c1ccccc1O` [Compound 40, 3-Iodo-2′-hydroxychalcone] as the molecule, how does the inhibition at 12.5 µg/mL [1, 3] read?
A: 92%

Q: And the inhibition at 12.5 µg/mL [1, 4]?
A: 92%

Q: What about the MIC [2, 5] of the same molecule?
A: > 35.7 µM

Q: What does the source list for `COc1ccc(-c2cc(=O)c3c(OC)c(-c4c(OC)cc5oc(-c6ccc(OC)cc6)cc(=O)c5c4OC)c(OC)cc3o2)cc1` [Compound 151, 6,6″-Biapigenin hexamethylether]?
A: inhibition at 12.5 µg/mL ([1]; Mtb H37Rv, 12.5 μg/mL, BACTEC 12B medium, read-out: Activity % Inhibition at 12.5 μg/mL (biflavonoids)): 96%; inhibition at 12.5 µg/mL [1, 4]: 96%; MIC [2, 5]: > 20.1 µM; melting point: 303 to 304 °C

Q: With `O=C(C=Cc1cc2ccccc2c2ccccc12)c1cccc(O)c1` [Compound 54, 1-(3-Hydroxyphenyl)-3-phenanthren-9-yl-2-propen-1-one] as the molecule, how does the inhibition at 12.5 µg/mL [1, 6] read?
A: 97%

Q: And the inhibition at 12.5 µg/mL [1, 7]?
A: 97%

Q: And the MIC ([2]; Mycobacterium tuberculosis)?
A: 19.2 µM (≈ 6.23 µg/mL)

Q: And the melting point?
A: 212 to 213 °C

Q: For “1-(5-pyridin-2-yl)-3-(phenanthen-9-yl)-2-propen-1-one [Compound 55]”, which “Activity % inhibition at 12.5 μg/mL (chalcone-like compounds)” value [1, 8] is on record?
A: 96%

Q: And the MIC ([2]; lowest concentration inhibiting 99% of the inoculum)?
A: 20.2 µM

Q: Which “anti-TB activity in words” value ([1]; Mtb H37Rv, 12.5 μg/mL) does the source give for `COc1ccc(C2CC(=O)c3c(cc(OC)c(-c4c(OC)cc5c(c4OC)C(=O)CC(c4ccc(OC)cc4)O5)c3OC)O2)cc1` (stereo not drawn) [Compound 157, 6-6′′-Binaringenin hexamethylether] here?
A: inactive

Q: And the “Activity % Inhibition at 12.5 μg/mL (biflavonoids)” value [1, 8]?
A: 2%

Q: For `COc1ccc(/C=C/C(=O)c2ccccc2F)cc1` [Compound 20], which “Activity % inhibition at 12.5 μg/mL (chalcones)” value [1, 8] is on record?
A: 82%

Q: For `O=c1cc(-c2cccc(-c3ccc4c(=O)cc(-c5ccccc5)oc4c3)c2)oc2ccccc12` [Compound 162, 7-3′′′-Biflavone], which “Activity % Inhibition at 12.5 μg/mL (biflavonoids)” value [1, 8] is on record?
A: 0%

Q: For `CC(=O)Oc1ccc([C@@H]2CC(=O)c3c(cc(OC(C)=O)c(-c4c(OC(C)=O)cc5c(c4OC(C)=O)C(=O)C[C@@H](c4ccc(OC(C)=O)cc4)O5)c3OC(C)=O)O2)cc1` [Compound 174, Succedaneaflavanone hexaacetate], which “Activity % Inhibition at 12.5 μg/mL (biflavonoids)” value [1, 8] is on record?
A: 0%

Q: For `O=C1CC(c2ccccc2)Oc2cc(I)ccc21` (stereo not drawn) [Compound 141], which “Activity % Inhibition at 12.5 μg/mL (flavanones)” value [1, 8] is on record?
A: 9%

Q: For `O=c1cc(-c2ccc(O)cc2)oc2ccccc12` [Compound 104], which “Activity % Inhibition at 12.5 μg/mL (flavones)” value [1, 8] is on record?
A: 18%

Q: With `COc1ccc(/C=C/C(=O)c2c(O)cc(OC)cc2OC)cc1` [Compound 7] as the molecule, how does the “Activity % inhibition at 12.5 μg/mL (chalcones)” value [1, 8] read?
A: 40%

Q: What about the “inhibition of the growth of Mtb” value [1, 9] of the same molecule?
A: 40%

Q: Which “Activity % inhibition at 12.5 μg/mL (chalcones)” value [1, 8] does the source give for `COc1ccc(C=CC(=O)c2ccc(Br)cc2O)cc1` [Compound 36] here?
A: 25%

Q: What about the “inhibition of the growth of Mtb” value [1, 9] of the same molecule?
A: 25%

Q: For `O=C(C=Cc1ccccc1)c1ccco1` [Compound 56, 1-(Furan-2-yl)-3-phenyl-2-propen-1-one], which inhibition at 12.5 µg/mL [1, 6] is on record?
A: 96%

Q: What about the inhibition at 12.5 µg/mL [1, 7] of the same molecule?
A: 96%

Q: What about the MIC ([2]; Mycobacterium tuberculosis) of the same molecule?
A: 31.5 µM (≈ 6.24 µg/mL)

Q: What about the melting point of the same molecule?
A: 94 to 95 °C

Q: With `O=C1CC(c2ccccc2)Oc2cc(Br)ccc21` (stereo not drawn) [Compound 136, 7-bromo-flavanone] as the molecule, how does the inhibition at 12.5 µg/mL [1, 10] read?
A: 53%

Q: What about the inhibition at 12.5 µg/mL [1, 4] of the same molecule?
A: 53%

Q: Which results are given for `COc1ccc(C(=O)/C=C/c2ccccc2)c(O)c1` [Compound 1]?
A: Activity % inhibition at 12.5 μg/mL (chalcones) [1, 8]: 78%; inhibition of the growth of Mtb [1, 9]: 78%

Q: With `O=C(C=Cc1ccc(Br)cc1)c1ccccc1O` [Compound 33] as the molecule, how does the “Activity % inhibition at 12.5 μg/mL (chalcones)” value [1, 8] read?
A: 70%

Q: What about the “inhibition of the growth of Mtb” value [1, 9] of the same molecule?
A: 70%

Q: With `COc1ccc(/C=C/C(=O)c2cc(C(=O)O)ccc2O)cc1` [Compound 16] as the molecule, how does the “Activity % inhibition at 12.5 μg/mL (chalcones)” value [1, 8] read?
A: 0%

Q: Which results are given for `O=c1cc(-c2cccc(Cl)c2)oc2ccccc12` [Compound 121]?
A: anti-TB activity in words ([1]; Mtb H37Rv, 12.5 μg/mL): weakly active or inactive; Activity % Inhibition at 12.5 μg/mL (flavones) [1, 8]: 0%; inhibition of the growth of Mtb [1, 9]: 0%

Q: With `COc1ccc(Br)c2c1C(=O)CC(c1ccccc1)O2` (stereo not drawn) [Compound 133, 5-Methoxy-8-bromo-flavanone] as the molecule, how does the inhibition at 12.5 µg/mL [1, 10] read?
A: 87%

Q: What about the inhibition at 12.5 µg/mL [1, 4] of the same molecule?
A: 87%

Q: And the melting point?
A: 134 to 165 °C

Q: With `COc1ccc(C2CC(=O)c3ccc(I)cc3O2)cc1` (stereo not drawn) [Compound 149] as the molecule, how does the “Activity % Inhibition at 12.5 μg/mL (flavanones)” value [1, 8] read?
A: 0%

Q: For `COc1ccc(-c2oc3ccc(F)cc3c(=O)c2O)cc1` [Compound 94], which “Activity % Inhibition at 12.5 μg/mL (flavones)” value [1, 8] is on record?
A: 29%
